This is an account of results in patent US6787534B2, “Sulfonamide-containing heterocyclic compounds” (Eisai Co., Ltd., priority 1999, dated 2004).

≈ marks a conversion by molar mass, not a printed value.

The subject of this assay is aorta pieces of rat (angiogenesis, capillaries formed around the aorta). The assay can be described thus: Antiangiogenic effect: inhibition of capillary formation around rat aorta pieces incubated in collagen. The class given is cell-based, rat (Sprague-Dawley). Conditions: rat thoracic aorta pieces in Type I collagen gel, MCDB 131 medium; capillaries counted on 7th day from addition of test compound; three-fold dilutions from 10 μg/ml; read-out: IC50 (50% inhibiting concentration of angiogenesis). On the procedure:
Pharmacological Experimental Example 1, Antiangiogenic Effect
The inhibition degree of angiogenesis which was observed when aorta pieces of rat were incubated in collagen was defined as an antiangiogenic effect. That is, the thoracic aorta excised from male rat of Sprague-Dawley strain (10-12 weeks age) was washed with a Hanks' solution (Gibco BRL, Gaithersburg, USA) so that fat tissues around there were removed minutely. The aorta was incised to prepare pieces of 2 mm square and they were allowed to stand in a 24-well plate holding the endothelial cells upside. Then, 500 μl of neutralized Type I collagen (Cell Matrix Type I-A; manufactured by Nitta Gelatin) were poured over each well and allowed to stand at room temperature for about 20 minutes in a clean bench to solidify the gel. After confirming that the gel was solidified, 500 μl of MCDB 131 medium (manufactured by Chlorella Kogyo) were added thereto followed by incubating in a CO2 incubator (5% CO2) at 37° C. On the next day, the culture medium was exchanged with 500 μl of MCDB 131 medium containing the test compound and the incubation was continued. After three days, the medium was again exchanged with 500 μl of MCDB 131 medium containing the test compound and, at the stage of the 7th day from the initiation of addition of the test compound, numbers of capillaries formed around the aorta were counted under a microscope. The solution containing the test compound was prepared in a three-fold dilution system where 10 μg/ml was the highest concentration.
Inhibiting rate was calculated from the following formula and 50% inhibiting concentration (IC50) for each test compound was determined.
Inhibiting Rate (%)=(C−T)/Cx100
C: Numbers of capillaries when no compound was added
T: Numbers of capillaries when a compound was added Table 1
Turning to `O=S(=O)(Nc1cnc2c(Br)cccc2c1)c1cccnc1` [Example 1, N-(8-Bromoquinolin-3-yl)-3-pyridinesulfonamide], the IC50 came to 0.49 µg/mL (≈ 1.35 µM).

As to `Cc1cncc(S(=O)(=O)Nc2ccc3c(Br)cccc3n2)c1` [Example 2, N-(5-Bromoquinolin-2-yl)-5-methyl-3-pyridinesulfonamide], the IC50 stood at 0.74 µg/mL (≈ 1.96 µM).

Regarding `N#Cc1ccc(S(=O)(=O)Nc2cnc3c(Br)cccc3c2)cc1` [Example 4, N-(8-Bromoquinolin-3-yl)-4-cyanobenzenesulfonamide], the IC50 was determined as 0.09 µg/mL (≈ 0.232 µM).

Take `CCNS(=O)(=O)c1ccc(S(=O)(=O)Nc2cnc3c(Br)cccc3c2)cc1` [Example 6, N-(8-Bromoquinolin-3-yl)-4-(N-ethylsulfamoyl)benzenesulfonamide]: the IC50 turned out to be 0.12 µg/mL (≈ 0.255 µM).

`O=S(=O)(Nc1cnc2c(Br)cccc2c1)c1ccc2c(c1)CCC2` [Example 11, N-(8-Bromoquinolin-3-yl)-5-indanesulfonamide]: the IC50 was determined as 0.04 µg/mL (≈ 0.0992 µM).

Consider `O=S(=O)(Nc1cnc2c(I)cccc2c1)c1cncc2ccccc12` [Example 15, N-(8-Iodoquinolin-3-yl)-4-isoquinolinesulfonamide], for which the IC50 amounted to 0.87 µg/mL (≈ 1.89 µM).

For `N#Cc1ccc(S(=O)(=O)Nc2ccc3c(Cl)cccc3n2)cc1` [Example 24, 4-Cyano-N-(5-chloroquinolin-2-yl)-benzenesulfonamide], the IC50 was 0.49 µg/mL (≈ 1.43 µM).

For `CCNS(=O)(=O)c1ccc(S(=O)(=O)Nc2ccc3c(Br)cccc3n2)cc1` [Example 27, N-(5-Bromoquinolin-2-yl)-4-(N-ethylsulfamoyl)benzenesulfonamide], the IC50 worked out at 0.08 µg/mL (≈ 0.17 µM).

Regarding `N#Cc1ccc(S(=O)(=O)Nc2cnc3c(C(F)(F)F)cccc3c2)cc1` [Example 38, N-(8-Trifluoromethylquinolin-3-yl)-4-cyanobenzenesulfonmide], the IC50 was 0.15 µg/mL (≈ 0.398 µM).

As to `O=S(=O)(Nc1cnc2c(Br)cccc2c1)c1ccc2c(c1)SCCO2` [Example 47, N-(8-Bromoquinolin-3-yl) -4-oxa-7-thiochromansulfonamide], the IC50 was found to be 0.09 µg/mL (≈ 0.206 µM).

In the case of `CC(=O)NCCc1ccc(S(=O)(=O)Nc2cnc3c(Br)cccc3c2)cc1` [Example 48, N-(8-Bromoquinolin-3-yl)-4-(2-acetamideethyl)benzenesulfonamide], the IC50 worked out at 0.35 µg/mL (≈ 0.781 µM).

Turning to `O=S1(=O)CCCc2cc(S(=O)(=O)Nc3cnc4c(Br)cccc4c3)ccc21` [Example 50, N-(8-Bromoquinolin-3-yl) -1,1-dioxide-6-yl-sulfonamide], the IC50 amounted to 0.31 µg/mL (≈ 0.663 µM).

In the case of `COc1ccc(S(=O)(=O)Nc2cnc3c(Br)cccc3c2)nn1` [Example 53], the IC50 came to 0.53 µg/mL (≈ 1.34 µM).

`O=S(=O)(Nc1ccc2c(Br)cncc2c1)c1ccc(Cl)nc1` [Example 59, N-(4-Bromoisoquinolin-7-yl)-6-chloro-3-pyridinesulfonamide]: the IC50 was 0.2 µg/mL (≈ 0.502 µM).

Turning to `N#Cc1ccc(S(=O)(=O)Nc2ccc3c(Cl)nccc3c2)cc1` [Example 61, 1-Chloro-6-(4-cyanobenzenesulfonylamino)isoquinoline], the IC50 came out at 0.3 µg/mL (≈ 0.873 µM).

Regarding `COc1nccc2cc(NS(=O)(=O)c3ccc(N)nc3)ccc12` [Example 69, 6-(2-Aminopyridin-5-ylsulfonylamino)-1-methoxyisoquinoline], the IC50 was 0.15 µg/mL (≈ 0.454 µM).

`COc1nccc2cc(NS(=O)(=O)c3ccc(-c4nccs4)cc3)ccc12` [Example 77, 1-Methoxy-6-(4-thiazol-2-ylbenzenesulfonylamino)isoquinoline]: the IC50 is 0.39 µg/mL (≈ 0.981 µM).

For the compound `CCc1nccc2cc(NS(=O)(=O)c3ccc(Cl)cc3)ccc12` [Example 80, 6-(4-Chlorobenzenesulfonylamino)-1-ethylisoquinoline], the IC50 amounted to 0.2 µg/mL (≈ 0.577 µM).

Consider `CCc1cncc2ccc(NS(=O)(=O)c3ccc(Cl)cc3)cc12` [Example 81], for which the IC50 amounted to 0.85 µg/mL (≈ 2.45 µM).

Consider `N#Cc1nccc2cc(NS(=O)(=O)c3ccc(Cl)cc3)ccc12` [Example 84, 6-(4-Chlorobenzenesulfonylamino)-1-cyanoisoquinoline], for which the IC50 turned out to be 0.14 µg/mL (≈ 0.407 µM).

`C=Cc1cccc2nc(NS(=O)(=O)c3cccnc3)ccc12` [Example 91, N-(5-Vinylquinolin-2-yl)-3-pyridinesulfonamide]: the IC50 worked out at 0.33 µg/mL (≈ 1.06 µM).

As to `O=c1cc(C(F)(F)F)c2ccc(NS(=O)(=O)c3ccc(Cl)cc3)cc2o1` [Example 92, N-(4-Trifluoromethylcoumarin-7-yl)-4-chlorobenzenesulfonamide], the IC50 came to 0.2 µg/mL (≈ 0.495 µM).
